Reference: patent US20220324835A1 (Nurix Therapeutics, Inc., priority 2018, published 2022)

Key:
[1] = molecular target: T1, Cbl-b (Homo sapiens, UniProt Q13191); test: Cbl-b inhibition assay (Cbl-b activity assay, FRET, Biological Example 1; 100 mM NaCl, 60 nM Src kinase); type: biochemical; conditions: upper bound stated in text lists; read-out: IC50 values in the Cbl-b inhibition assay of Biological Example 1
How it was run: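 Steps: Src kinase phosphorylates N-terminal biotinylated Avi-tagged Cbl-b; phosphorylated Cbl-b binds Bodipy-fluorescein ubiquitin-loaded UbcH5B; streptavidin-terbium on Cbl-b sits close to the fluorescein label, producing FRET. Inhibitors block UbcH5B-Ub binding.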

[2] = test system: T-cell; test: IL-2 secretion from T-cells co-stimulated with anti-CD3 and anti-CD28 antibody (Biological Example 2); type: cell-based, human; conditions: Homo sapiens, T-cell, primary human total T-cells, baseline = anti-CD3/anti-CD28 stimulated cells without inhibitor, read-out: IL-2 secretion, Anti-CD3/Anti-CD28 stimulation, fold change over baseline; for fold induction at 0.3 µM: 0.3 μM compound; for fold induction at 1 µM: 1 μM compound; for fold induction at 4 µM: 4 μM compound
How it was run: (§1)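 T-cells were stimulated with anti-CD3 antibody alone or with anti-CD28 antibody, in the presence or absence of Cbl-b inhibitor. IL-2 secretion or CD25 surface staining was measured, and values expressed as fold over the uninhibited baseline […].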

[3] = test system: T-cell; test: CD25 cell surface staining on T-cells stimulated with anti-CD3 antibody alone (Biological Example 2); type: cell-based; conditions: primary human total T-cells, baseline = anti-CD3/anti-CD28 stimulated cells without inhibitor, read-out: CD25 staining, Anti-CD3 stimulation, fold change over baseline; for fold induction at 1 µM: 1 μM compound; for fold induction at 8 µM: 8 μM compound
[4] = molecular target: T1, Cbl-b; test: Cbl-b activity assay (Cbl-b inhibition assay), TR-FRET of Cbl-b interaction with UbcH5B-Ub; type: biochemical; conditions: assay buffer with 100 mM NaCl, 60 nM Src kinase; read-out: Cbl-b activity IC50
How it was run: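 UbcH5B (C85K) conjugated to N-terminally Bodipy-Fluorescein-labeled ubiquitin served as the fluorescent partner. After compound preincubation, Src kinase (60 nM) with 1 mM ATP and 5 mM MgCl2 (final) was added for 1.5 h, followed by a further 1 h incubation. Some values were obtained with 50 mM NaCl and 30 nM Src.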

[5] = test system: T-cell; test: IL-2 secretion from T-cells stimulated with anti-CD3 antibody alone (Biological Example 2); type: cell-based; conditions: primary human total T-cells, read-out: IL-2 secretion, Anti-CD3 stimulation, fold change over baseline; for fold induction at 1 µM: 1 μM compound; for fold induction at 8 µM: 8 μM compound
[6] = test system: T-cell; test: CD25 cell surface staining on T-cells co-stimulated with anti-CD3 and anti-CD28 antibody (Biological Example 2); type: cell-based, human; conditions: Homo sapiens, T-cell, primary human total T-cells, baseline = anti-CD3/anti-CD28 stimulated cells without inhibitor, read-out: CD25 staining, Anti-CD3/Anti-CD28 stimulation, fold change over baseline; for fold induction at 0.3 µM: 0.3 μM compound; for fold induction at 1 µM: 1 μM compound; for fold induction at 4 µM: 4 μM compound
How it was run: as §1

T1 sequence (Q13191 36-427): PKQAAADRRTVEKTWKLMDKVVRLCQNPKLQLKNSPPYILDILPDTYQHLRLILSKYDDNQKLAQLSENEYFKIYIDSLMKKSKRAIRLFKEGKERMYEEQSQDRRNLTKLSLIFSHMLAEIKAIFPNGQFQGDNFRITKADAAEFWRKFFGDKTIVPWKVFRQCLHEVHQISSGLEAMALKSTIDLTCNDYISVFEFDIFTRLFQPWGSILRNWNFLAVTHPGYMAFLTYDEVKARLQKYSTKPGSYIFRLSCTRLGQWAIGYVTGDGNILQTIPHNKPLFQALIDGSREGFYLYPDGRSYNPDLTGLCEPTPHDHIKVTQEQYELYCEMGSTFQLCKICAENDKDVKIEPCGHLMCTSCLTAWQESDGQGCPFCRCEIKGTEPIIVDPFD

| SMILES | IC50 [1] [nM] | fold induction at 0.3 µM [2] | fold induction at 1 µM [2] | fold induction at 1 µM [3] | IC50 [4] [nM] | fold induction at 1 µM [5] | fold induction at 0.3 µM [6] | fold induction at 1 µM [6] | fold induction at 4 µM [2] | fold induction at 8 µM [3] | fold induction at 8 µM [5] | fold induction at 4 µM [6] |
| --- | --- | --- | --- | --- | --- | --- | --- | --- | --- | --- | --- | --- |
| C[C@@H](c1cc2c(c(C(F)(F)F)c1)CN(c1cccc(C3(Cc4nncn4C)COC3)c1)C2=O)N1CCC2(CC1)CC2 [Example 558a, (S)-6-(1-(6-azaspiro[2.5]octan-6-yl)ethyl)-2-(3-(3-((4-methyl-4H-1,2,4-triazol-3-yl)methyl)oxetan-3-yl)phenyl)-4-(trifluoromethyl)isoindolin-1-one] | ≤ 100 | > 7.5 | > 7.5 | > 1 | < 100 | > 0.201 | 1.01 to 1.3 | 1.01 to 1.3 | – | – | – | – |
| Cn1cnnc1C[C@]1(c2cccc(N3Cc4c(cccc4C(F)(F)F)C3=O)c2)C[C@H](CO)C1 [Compound 470, 2-{3-[(1R,3R)-3-(hydroxymethyl)-1-[(4-methyl-4H-1,2,4-triazol-3-yl)methyl]cyclobutyl]phenyl}-4-(trifluoromethyl)-2,3-dihydro-1H-isoindol-1-one] | ≤ 300 | 1.01 to 2.5 | 2.51 to 5 | 0.801 to 1 | 100 to 300 | 0.101 to 0.15 | 1.31 to 1.5 | 1.51 to 1.75 | 5 to 7.5 | > 1 | > 0.201 | 1.51 to 1.75 |
| C[C@@H]1CN(C)CCN1c1cc2c(c(C(F)(F)F)c1)CN(c1cccc(C3(Cc4nncn4C)COC3)c1)C2=O [Compound 390, (R)-6-(2,4-Dimethylpiperazin-1-yl)-2-(3-(3-((4-methyl-4H-1,2,4-triazol-3-yl)methyl)oxetan-3-yl)phenyl)-4-(trifluoromethyl)isoindolin-1-one] | ≤ 100 | 2.51 to 5 | > 7.5 | > 1 | < 100 | 0.151 to 0.2 | 1.01 to 1.3 | 1.31 to 1.5 | – | – | – | – |
| C[C@H](c1cc2c(c(C(F)(F)F)c1)CN(c1cccc([C@@](C)(F)C(F)(F)c3nncn3C)c1)C2=O)N1CC[C@H](F)C1 [Compound 459, 6-((R)-1-((S)-3-fluoropyrrolidin-1-yl)ethyl)-2-(3-((R)-1,1,2-trifluoro-1-(4-methyl-4H-1,2,4-triazol-3-yl)propan-2-yl)phenyl)-4-(trifluoromethyl)isoindolin-1-one] | ≤ 100 | 2.51 to 5 | > 7.5 | > 1 | < 100 | > 0.201 | 1.01 to 1.3 | 1.31 to 1.5 | > 7.5 | > 1 | > 0.201 | 1.51 to 1.75 |
| Cn1cnnc1CC1(c2cccc(N3Cc4c(cc(CN5CC(C(=O)O)C5)cc4C(F)(F)F)C3=O)c2)COC1 [Compound 428] | ≤ 100 | 1.01 to 2.5 | 1.01 to 2.5 | 0.801 to 1 | < 100 | 0.151 to 0.2 | 1.01 to 1.3 | 1.01 to 1.3 | 1.01 to 2.5 | > 1 | > 0.201 | 1.01 to 1.3 |
| Cn1cnnc1CC1(c2cccc(N3Cc4c(cc(CN5C[C@@H](F)[C@@H](F)C5)cc4C(F)(F)F)C3=O)c2)COC1 [Compound 414, 6-((cis-3,4-Difluoropyrrolidin-1-yl)methyl)-2-(3-(3-((4-methyl-4H-1,2,4-triazol-3-yl)methyl)oxetan-3-yl)phenyl)-4-(trifluoromethyl)isoindolin-1-one] | ≤ 100 | > 7.5 | > 7.5 | 0.801 to 1 | < 100 | 0.151 to 0.2 | 1.31 to 1.5 | 1.31 to 1.5 | > 7.5 | > 1 | > 0.201 | 1.51 to 1.75 |
| Cn1cnnc1CC1(c2cccc(NC(=O)c3cc(OC(F)F)cc(C4CC4)n3)c2)COC1 [Compound 502, 6-cyclopropyl-4-(difluoromethoxy)-N-(3-{3-[(4-methyl-1,2,4-triazol-3-yl)methyl]oxetan-3-yl}phenyl)pyridine-2-carboxamide] | ≤ 100 | 5 to 7.5 | > 7.5 | > 1 | < 100 | > 0.201 | 1.01 to 1.3 | 1.01 to 1.3 | – | – | – | – |
